Data: PMC7849180 (Frontiers in Pharmacology, 2020)

Assays:
[1] = Metabolic stability in liver microsomes; assay type: in vitro ADME, dog
Procedure: The metabolic stability of ZG0128 (the dihydrochloride monohydrate of ZG0163) was evaluated using human, monkey, dog, rat, and mouse liver microsomes as the in vitro models. The percentages of residues for ZG0128 after incubating in human, monkey, dog, rat, and mouse liver microsomes for 60 minutes was 55.5%, 63.1%, 67.1%, 80.3%, and 79.0%, respectively. The CLint values of in vivo clearance were calculated to be 24.1, 21.6, 33.4, 10.7, 26.0 mL/min/kg, respectively. Thus its was speculated that ZG0128 was a medium clearance drug in humans, monkeys, and mice, a high clearance drug in dogs, and a low clearance drug in rats.
Using UPLC-UV/Q-TOF MS, the potential metabolites of ZG0128 in various liver microsomes (human, monkey, dog, rat and mouse liver microsomes) incubation systems were identified and the metabolic pathways of ZG0128 were speculated. The main metabolite of ZG0128 in above five types of liver microsomes were primary alcohol metabolite formed by morpholine ring-opening (M3). […]

CYP1A2 = assay type: in vitro ADME, human; details: 0.10, 1.00, 10.0 μM
Excerpt: Suzhou Zelgen Biopharmaceuticals Co., Ltd. Jaktinib Hydrochloride Tablets Chemical Drug Class 1 New Drug […]
metabolite formed in human liver microsomes was the morpholine ring-opening metabolite M3. The enzyme phenotype involved in the oxidation of ZG0128 to form M3 was identified with reaction phenotyping assay using chemical inhibition and human recombinant CYP450 enzymes.
Using UPLC/Q-TOF MS, the amount of ZG0128 and primary alcohol metabolite formed by morpholine ring-opening (M3) in human liver microsomes and different incubation systems for human recombinant enzymes, including CYP1A2, CYP2A6, […]
inhibitor 1-ABT, CYP3A inhibitor ketoconazole, and CYP2C8 inhibitor quercetin can […]
for human liver microsomes and inhibit the formation of M3. […]
primary enzyme that produced M3 while CYP1A2, 2D6 and 2C9 were also partly involved. Results from the reaction phenotyping assay using chemical inhibition and […]
microsomes was a morpholine ring-opening metabolite catalyzed mainly by CYP3A4 […]
Inhibition and Induction of ZG0128 on CYP-P450s
The inhibition and induction potentials of ZG0128 on CYP-P450s were evaluated using mixed human liver microsomes and human primary hepatocytes as the in vitro […]
hydroxylation), and CYP3A4 (testosterone 6β-hydroxylation), with an IC50 greater than […]. […]

[2] = PK, single intravenous dose; assay type: in vivo, beagles; details: 12.2 mg ZG0128 (1.22 mg/kg)
Procedure: Suzhou Zelgen Biopharmaceuticals Co., Ltd. Jaktinib Hydrochloride Tablets Chemical Drug Class 1 New Drug
Pharmacokinetics of single dose intravenous administration in beagles.
After intravenous administration of 12.2 mg ZG0128 (the average weight of the beagles was about 10 kg, so the dose given equals to 1.22 mg/kg ZG0128), ZG0163 […]
AUC0-t was 70.1% of that of the original drug.
Pharmacokinetics of single-dose intragastric administration.
The average Tmax of ZG0163 was 2.0 h after a single-dose intragastric administration of 1, 2, and 4 ZG0128 tablets (corresponding to 61, 122, and 244 […]
mg/ZG0128). […] The plasma […]
exposure AUC0-t was 459, 948, and 1728 ng•h/mL (mean) and the average plasma […]
There were large individual differences in plasma exposure AUC0-t in dogs. The pharmacokinetic differences between genders could not be determined. Within the range of 61-244 mg, the AUC0-t of ZG0163 increased proportionally with the increasing dosage. The average Tmax of metabolite ZG0245 was 2.0 h. The plasma exposure of metabolite ZG0245 was roughly 2.16 times

[3] = Food effect on plasma pharmacokinetics, 200 mg crossover; assay type: in vivo, human; details: for AUC0-t, geometric mean / AUC0-∞, geometric mean / Cmax, geometric mean / median Tmax: 200 mg
Procedure: For MAD cohorts, blood samples were collected at 0, 0.25, 0.5, 1, 1.5, 2, 3, 4, 5, 6, 8 and 12 h on day 1; 0 h on day 2, 3, 4, 6 and 7; 0, 0.25, 0.5, 1, 1.5, 2, 3, 4, 5, 6, 8, 12, 24, 36 and 48 h on day 10. In food effect cohort, blood samples were collected at 0, 0.25, 0.5, 1, 1.5, 2, 3, 4, 5, 6, 8, 12, 24, 36, 48, 72, 96 and 120 h in period one of group A; 0, 0.25, 0.5, 1, 1.5, 2, 3, 4, 5, 6, 8, 12, 24, 36 and 48 h in period two of group A and the two periods of group B. Blood samples were centrifuged at 3,000 rpm for 10 min at 2–8 °C and stored at -80 °C until liquid chromatography-mass spectrophotometry (LC-MS/MS) analysis. Urine and feces samples were collected in period one of group A of food effect cohort with the intervals 0, 0–6, 6–12, 12–24, 24–48, 48–72, 72–96, 96–120 and 0–120 h, respectively. […]
Statistical analysis was performed using SAS software, version 9.4 (SAS Institute Inc., United States). Descriptive statistics were used to summarize continuous variables as cases, means with standard deviations, medians, maximum and minimum. For categorical variables, frequencies and percentages were used. A regression power model, relating log-transformed Cmax and AUC parameters to log-transformed dose, was used to investigate dose proportionality. Food effect pharmacokinetic parameters were analyzed using the mixed effect model with period, sequence and treatment as fixed effects and subjects as the random effect. Logarithmic transformation of Cmax, AUC0-∞ and AUClast were performed to calculate the 90% confidence intervals (CIs) of the geometric mean ratio (GMR) between fasting and fed administration. If the calculated 90% CI values fall entirely within the range of 0.80–1.25, it is indicative of no significant food effect.

Compound | CLint of in vivo clearance [1] [mL/min/kg] | percentage of residue after 60 minutes [1] [%] | in vitro induction (CYP1A2) | plasma clearance CL [2] [mL/min/kg] | volume of distribution Vss [2] [L/kg] | Cmax, geometric mean (CV%) ([3]; 200 mg fasted) | Tmax, median (min–max) ([3]; 200 mg fasted) | Cmax, geometric mean (CV%) ([3]; 200 mg fed) | Tmax, median (min–max) ([3]; 200 mg fed) | AUC0-t, geometric mean ([3]; fasted (n = 12)) [ng·h/mL] | AUC0-∞, geometric mean ([3]; fasted (n = 12)) [ng·h/mL] | Cmax, geometric mean ([3]; fasted (n = 12)) [ng/mL] | median Tmax ([3]; fasted state) [h] | AUC0-t, geometric mean ([3]; fed (n = 12)) [ng·h/mL] | AUC0-∞, geometric mean ([3]; fed (n = 12)) [ng·h/mL] | Cmax, geometric mean ([3]; fed (n = 12)) [ng/mL] | median Tmax ([3]; fed state) [h] | AUC0-t, geometric mean ratio ([3]; fed vs fasted) | AUC0-∞, geometric mean ratio ([3]; fed vs fasted) | Cmax, geometric mean ratio ([3]; fed vs fasted)
Cl.Cl.O.[2H]C1([2H])COCC([2H])([2H])N1c1ccc(Nc2nccc(-c3ccc(C(=O)NCC#N)cc3)n2)cc1 [ZG0128, Jaktinib Dihydrochloride Monohydrate] | 33.4 | 67.1 | no in vitro induction | – | – | – | – | – | – | – | – | – | – | – | – | – | – | – | – | –
Jaktinib | – | – | – | 49.3 | 3.49 | 237.98 (69.0) ng/ml | 2.00 (0.50–5.00) h | 542.35 (32.1) ng/ml | 4.00 (3.00–5.00) h | 1569.48 | 1616.35 | 237.98 | 2 | 4174.9 | 4207.38 | 542.35 | 4 | 2.66 | 2.60 | 2.28
